Laboratory results taken from patent US4304778A, “4-Aminoquinazoline derivatives having fungicidal, anti-insect and acaricidal properties” (Sankyo Company Limited, priority 1978, dated 1981).

Key:
[1] = system: Phytophthora infestans; type: in vivo; settings: tomato late blight; 500 ppm; after 5 days; average per leaf
[2] = system: Colletotrichum lagenarium; experiment: Effect on anthracnose in cucumbers; type: in vivo; settings: cucumber anthracnose; 500 ppm; seven days; cotyledon and first leaf
Procedure: (§1) In the following Examples, wettable powders prepared according to the procedures of Example 4 were used, each powder containing 50% by weight of the active compound of this invention.
Groups of cucumber plants (variety Sagamihanshiro) were planted, two per pot, in a series of Wagner pots (diameter 12 cm) and were used as host plants when the first leaf was fully grown and open. Each test group of three pots was treated with one of the active compounds shown in Table 4 by spraying an aqueous suspension containing 500 ppm of the active compound onto the plants at the rate of 30 ml per 3 pots. After air-drying the plants, a spore suspension of the pathogenic microorganism Colletotrichum lagenarium was sprayed onto the plants and the plants were kept in a wet room for 24 hours at 20°-22° C. and 100% relative humidity. The pots were then placed in a greenhouse at 26° C. and, seven days after the spore suspension had been sprayed on, the percentage diseased area of the cotyledon and the first leaf was calculated.

[3] = system: Sphaerotheca fuliginea; experiment: Effect on powdery mildew in cucumbers; type: in vivo; settings: cucumber powdery mildew; 500 ppm; 10 days
Procedure: as §1
Cucumber seedlings (variety Sagamihanshiro), planted two per 12 cm diameter pot, were used as host plants at the stage when the first leaf was fully grown and open. Each test group of three pots was treated with one of the active compounds shown in Table 5 by spraying an aqueous suspension containing 500 ppm of the active compound onto the plants at the rate of 20 ml per 3 pots. After air-drying the plants, the host plants were inoculated with the microorganism Sphaerotheca fuliginea by brushing already infected cucumber leaves with a small brush and letting the microorganism fall onto the host plants. The inoculated plants were kept in a greenhouse at 24°-26° C. for 10 days. At the end of this time, the percentage diseased area was measured.

[4] = system: third instar larvae of the tobacco cutworm; experiment: Repellent action against the third instar larvae of the tobacco cutworm; type: in vivo; set-up: key: -: no ingestion; ±: very little ingestion; +: some ingestion; ++: considerable ingestion; settings: cabbage leaves dipped in 500 ppm, 72 hours
From the text: as §1
Cabbage leaves were dipped for 30 seconds in an aqueous suspension containing 500 ppm of one of the active compounds shown in Table 6. After air-drying, each leaf was placed into a plastic receptacle having a diameter of 8 cm and the third instar larvae (10 per receptacle) of the tobacco cutworm were released onto the leaves. After 72 hours, the extent of ingestion of the leaves was measured, using two receptacles for each test compound. The results are shown in Table 6, using the following notation (which is also employed, with the same meaning, in following Table 9): […]

[5] = system: final instar larvae of the diamondback moth (Plutella xylostella); experiment: Repellent and emergence-inhibition effect on the final instar larvae of diamondback moths; type: in vivo; set-up: key to Extent of ingestion: -: no ingestion; ±: very little ingestion; +: some ingestion; ++: considerable ingestion; settings: 72 hours; for pest or weed control at 500 ppm: Plutella xylostella, read-out: Emergence-inhibition rate (%); for Extent of ingestion: radish leaves dipped in 500 ppm
From the text: as §1
Leaves of the Japanese radish (Raphanus sativus) were dipped for 30 seconds into a liquid containing 500 ppm of one of the compounds shown in Table 9. After air-drying the leaves, each leaf was placed into a plastic icecream cup (diameter 8 cm) and 15 final instar larvae of the diamondback moth (Plutella xylostella) were placed into each cup. Each test was conducted in duplicate and the results were averaged.

[6] = system: cotton aphid (Aphis gossyppi); experiment: Effect on the cotton aphid on cucumbers; type: in vivo; settings: 600 ppm; 5 sprayings Sept. 25 to Oct. 30; examined Nov. 9; untreated control 8.7
From the text: as §1
Cucumbers (variety "Tokiwa Hikari No. 3, Type P") were transplanted into a plastic greenhouse on September 12. Using a shoulder sprayer, a liquid containing 600 ppm of one of the compounds shown in Table 11 was sprayed on the surface and reverse side of the leaves on Sept. 25, Oct. 9, 16, 23 and 30. On Nov. 9, the effect on the cotton aphid (Aphis gossyppi) was investigated, sampling 25-30 leaves at random from each test area and calculating the number of colonies on each leaf; there were generally 50-100 aphids per colony. The results are shown as the number of colonies per leaf in Table 11, which also gives the results for a test area where no compound of the invention was applied.

[7] = system: cockroach larvae; settings: 24 hours; 25° C.
[8] = system: Piricularia oryzae; type: in vivo; settings: rice blast; 500 ppm spray; mean, upper two leaves
[9] = system: guppies; experiment: Toxicity to guppies; type: in vivo; settings: LC50 after 48 hours classified
Procedure: In this example the toxicity of the compounds of the invention towards guppies was estimated and is compared with that of corresponding compounds as disclosed and claimed in our co-pending U.S. Application No. 910,117 filed May 30, 1978. The LC50 was determined after 48 hours and the toxicity to guppies was classified into the rankings (i), (ii) and (iii) according to the following classification scheme: […]

| SMILES | Diseased area (%) [1] [%] | Diseased area (%) [2] [%] | Diseased area (%) [3] [%] | Extent of ingestion [4] | pest or weed control at 500 ppm [5] [%] | Extent of ingestion [5] | No. of colonies per leaf [6] [colonies per leaf] | Mortality rate (%), 0.5mg test cpd/10 cockroaches/bottle [7] [%] | Mortality rate (%), 1mg test cpd/10 cockroaches/bottle [7] [%] | No. of disease spots per leaf [8] [spots per leaf] | Toxicity ranking [9] |
| --- | --- | --- | --- | --- | --- | --- | --- | --- | --- | --- | --- |
| Cc1ccc(C(C)C)cc1OCCN(C)c1ncnc2ccccc12 [Compound No. 21, 4-{N-[2-(5-isopropyl-2-methylphenoxy)ethyl]-N-methylamino}quinazoline] | 12 | 0 | 0 | + | 90 | ± | 1.0 | 90 | 100 |  |  |
| Cc1ccc(COCCN(C)c2ncnc3ccccc23)cc1 [compound 13, 4-{N-methyl-N-[2-(4-methylbenzyloxy)ethyl]amino}quinazoline] |  |  |  |  |  |  |  | 80 | 100 | 2.9 |  |
| CC(C)c1ccccc1OCCN(C)c1ncnc2ccccc12 [compound 15, 4-{N-[2-(2-isopropylphenoxy)ethyl]-N-methylamino}quinazoline] | 0 |  | 0 | ± to + | 60 | ± |  | 80 | 100 | 3.0 | ii (all fish dead at 10 ppm but alive at 0.5 ppm) |
| Cc1ccc(OCCN(C)c2ncnc3ccccc23)c(C)c1 [compound 17, 4-{N-[2-(2,4-dimethylphenoxy)ethyl]-N-methylamino}-quinazoline] | 9 |  | 0 | + | 50 | ± to + |  | 90 | 100 | 2.4 | ii (all fish dead at 10 ppm but alive at 0.5 ppm) |
| Cc1ccc(OCCN(C)c2ncnc3ccccc23)cc1 [compound 18, 4-{N-methyl-N-[2-(4-methylphenoxy)ethyl]amino}quinazoline] | 16 |  | 8 |  |  |  |  | 90 | 100 | 2.6 |  |
| Cc1cc(Cl)ccc1OCCN(C)c1ncnc2ccccc12 [compound 22, 4-{N-[2-(4-chloro-2-methylphenoxy)ethyl]-N-methylamino}quinazoline] | 15 | 0 | 0 | ± to + | 80 | ± | 1.1 | 80 | 100 |  |  |
| CCCCCCCCc1ccc(C)c(OCCN(C)c2ncnc3ccccc23)c1 [compound 56, 4-{N-methyl-N-[2-(2-methyl-5-octylphenoxy)ethyl]amino}quinazoline] |  |  |  |  |  |  |  |  |  | 3.2 |  |
| CCCCCCCCc1ccc(OCCN(C)c2ncnc3ccccc23)c(C)c1 [compound 58, 4-{N-methyl-N-[2-(2-methyl-4-octylphenoxy)ethyl]amino}quinazoline] | 10 |  |  | ± to + | 85 | ± | 0.5 | 90 | 100 |  |  |
